Laboratory results taken from ChEMBL document CHEMBL1152438, “Design, synthesis, and structure-activity relationships of aminopyridine N-oxides, a novel scaffold for the potent and selective inhibition of p38 mitogen activated protein kinase” (J Med Chem, 2009).
Values after ≈ are worked out from the molar mass of the structure shown.

How the values were obtained:
[1] = Solubility at pH 0.1; assay type: physicochemical; details: buffer
[2] = Solubility at pH 7.4; assay type: physicochemical; details: buffer
[3] = Solubility at pH 9.0; assay type: physicochemical; details: buffer
[4] = Volume of distribution at steady state in rat at 0.5 mg/kg, iv; assay type: ADME, organism-based; design: dose 0.5 mg/kg, route intravenous; details: in vivo, read-out: Vdss
[5] = Tmax in rat at 10 mg/kg, po; assay type: ADME, organism-based; design: dose 10 mg/kg, route oral; details: in vivo
[6] = Clearance in rat at 0.5 mg/kg, iv; assay type: ADME, organism-based; design: dose 0.5 mg/kg, route intravenous; details: in vivo
[7] = Cmax in rat at 10 mg/kg, po; assay type: ADME, organism-based; design: dose 10 mg/kg, route oral; details: in vivo
[8] = Oral bioavailability in rat at 10 mg/kg; assay type: ADME, organism-based; details: in vivo
[9] = AUC (0 to 6 hrs) in rat at 10 mg/kg, po; assay type: ADME, organism-based; design: time < 6 hr, dose 10 mg/kg, route oral; details: plasma
[10] = Half life in rat at 0.5 mg/kg, iv; assay type: ADME, organism-based; design: dose 0.5 mg/kg, route intravenous; details: in vivo
[11] = Volume of distribution at steady state in rat at 1 mg/kg, iv; assay type: ADME, organism-based; design: dose 1 mg/kg, route intravenous; details: in vivo, read-out: Vdss
[12] = Clearance in rat at 1 mg/kg, iv; assay type: ADME, organism-based; design: dose 1 mg/kg, route intravenous; details: in vivo
[13] = Half life in rat at 1 mg/kg, iv; assay type: ADME, organism-based; design: dose 1 mg/kg, route intravenous; details: in vivo

Structure (SMILES): Cc1cc(O)ccc1-c1c(N)c(C(=O)c2ccc(F)cc2F)cc[n+]1[O-]
- solubility [1]: 0.044 mg/mL (≈ 123 µM)
- solubility [2]: 0.037 mg/mL (≈ 104 µM)

Structure (SMILES): Cc1cc(C(=O)O)ccc1-c1c(N)c(C(=O)c2ccc(F)cc2F)cc[n+]1[O-]
- solubility [1]: 0.041 mg/mL (≈ 107 µM)
- solubility [3]: > 1 mg/mL
- solubility [2]: > 1 mg/mL

Structure (SMILES): Cc1cc(OCCN2CCOCC2)ccc1-c1c(N)c(C(=O)c2ccc(F)cc2F)cc[n+]1[O-]
- solubility [1]: > 1 mg/mL
- solubility [2]: 0.051 mg/mL (≈ 109 µM)

Structure (SMILES): Nc1c(C(=O)c2ccc(F)cc2F)cc[n+]([O-])c1-c1c(F)cccc1F
- solubility [3]: 0.002 mg/mL (≈ 5.52 µM)
- solubility [2]: 0.004 mg/mL (≈ 11 µM)

Structure (SMILES): COCCOc1ccc(-c2c(N)c(C(=O)c3ccc(F)cc3F)cc[n+]2[O-])c(C)c1
- solubility [1]: 0.024 mg/mL (≈ 57.9 µM)
- solubility [3]: 0.089 mg/mL (≈ 215 µM)
- solubility [2]: 0.067 mg/mL (≈ 162 µM)

Structure (SMILES): Cc1ccccc1-c1c(N)c(C(=O)c2ccc(F)cc2F)cc[n+]1[O-]
- solubility [1]: 0.11 mg/mL (≈ 323 µM)
- Vd [4]: 2.3 L/kg
- Tmax [5]: 0.75 h
- solubility [3]: 0.074 mg/mL (≈ 217 µM)
- clearance [6]: 1 L/h/kg
- solubility [2]: 0.063 mg/mL (≈ 185 µM)
- Cmax [7]: 4.7 µM
- bioavailability [8]: 75%
- AUC(0-t) at 6 h [9]: 22.2 µM·h
- half-life [10]: 1.6 h

Structure (SMILES): COCCNC(=O)c1ccc(-c2c(N)c(C(=O)c3ccc(F)cc3F)cc[n+]2[O-])c(C)c1
- solubility [1]: 0.054 mg/mL (≈ 122 µM)
- solubility [3]: 0.049 mg/mL (≈ 111 µM)
- solubility [2]: 0.046 mg/mL (≈ 104 µM)

Structure (SMILES): Nc1c(C(=O)c2ccc(F)cc2F)cc[n+]([O-])c1-c1ccccc1Cl
- Vd [11]: 1.8 L/kg
- solubility [1]: 0.066 mg/mL (≈ 183 µM)
- Tmax [5]: 3.5 h
- solubility [3]: 0.039 mg/mL (≈ 108 µM)
- solubility [2]: 0.059 mg/mL (≈ 164 µM)
- Cmax [7]: 11.9 µM
- clearance [12]: 0.102 L/h/kg
- bioavailability [8]: 23%
- AUC(0-t) at 6 h [9]: 54.4 µM·h
- half-life [13]: 14.8 h

Structure (SMILES): Cc1cccc(C)c1-c1c(N)c(C(=O)c2ccc(F)cc2F)cc[n+]1[O-]
- solubility [1]: 0.04 mg/mL (≈ 113 µM)
- solubility [3]: 0.07 mg/mL (≈ 198 µM)
- solubility [2]: 0.069 mg/mL (≈ 195 µM)
